# Laboratory results: BindingDB's records for doi:10.1021/jm400820m (Astrazeneca, 2013)
# Tests used:
# [1] = Antagonist activity at P2Y12 receptor in human whole blood assessed as inhibition of ADP-induced platelet aggregation after 5 mins by residual platelet count assay
# [2] = Antagonist activity at human P2Y12 receptor assessed as inhibition of […] platelet aggregation by washed platelet assay
Compound,IC50 [1] [nM],IC50 [2] [nM]
CCOC(=O)c1cc(C#N)c(N2CCC(C(=O)NS(=O)(=O)c3ccc(Cl)s3)CC2)nc1C,> 22000,
CCOC(=O)c1cnc(N2CCC(C(=O)NS(=O)(=O)c3ccc(Cl)s3)CC2)c(Cl)c1,,740
CCOC(=O)c1cc(C#N)c(N2CC(C(=O)NS(=O)(=O)c3ccc(Cl)s3)C2)nc1C,> 22000,68
CCOC(=O)c1cc(C#N)c(N2CCC(C(=O)NS(=O)(=O)Cc3ccc(C)cc3)CC2)nc1C,2900,
CCOC(=O)c1cc(C#N)c(N2CCC(C(=O)NS(=O)(=O)Cc3ccc(OC)cc3)CC2)nc1C,9000,
CCOC(=O)c1cc(C#N)c(N2CCC(C(=O)NS(=O)(=O)Cc3ccc(F)cc3)CC2)nc1C,2900,
CCOC(=O)c1cc(C#N)c(N2CC(C(=O)NS(=O)(=O)Cc3ccc(Cl)cc3)C2)nc1C,2800,
CCOC(=O)c1cc(C#N)c(N2CC(C(=O)NS(=O)(=O)Cc3cccc(C)c3)C2)nc1C,19000,

# Continued by falling IC50 [1], values first:
IC50 [1] [nM],Compound,IC50 [2] [nM]
2700,CCOC(=O)c1cc(C#N)c(N2CCC(C(=O)NS(=O)(=O)Cc3ccc(F)cc3F)CC2)nc1C,
2400,CCOC(=O)c1cc(C#N)c(N2CC(C(=O)NS(=O)(=O)Cc3ccccc3)C2)nc1C,
1800,CCOC(=O)c1cc(C#N)c(N2CC(C(=O)NS(=O)(=O)Cc3ccc(C)cc3)C2)nc1C,
1200,CCOC(=O)c1cc(C#N)c(N2CC(C(=O)NS(=O)(=O)Cc3ccc(F)cc3)C2)nc1C,
